The values that follow are results of earlier work, collected in PubChem BioAssay AID1259410 (Chemical Carcinogenesis Research Information System (CCRIS), 2018).

For this series, the system named is rodent tumor promotion studies, tumor incidence. Description: CCRIS tumor promotion studies.

`CCC1(c2ccccc2)C(=O)NC(=O)NC1=O`: the outcome (Carcinogen: 2-(ACETYLAMINO)FLUORINE, Doses [Carcinogen]: DIET, Doses [Promoter]: IN DIET, Route [Carcinogen]: ORAL, Route [Promoter]: ORAL, Species: RAT, Strain/Sex: MALE) is “liver”; the outcome (Carcinogen: 3'-METHYL-4-DIMETHYLAMINOAZOBENZENE, Doses [Carcinogen]: DIET, Doses [Promoter]: IN DIET, Route [Carcinogen]: ORAL, Route [Promoter]: ORAL, Species: RAT, Strain/Sex: MALE) is on record as “liver”; the outcome (Carcinogen: 4-DIMETHYLAMINOAZOBENZENE, Doses [Carcinogen]: DIET, Doses [Promoter]: IN DIET, Route [Carcinogen]: ORAL, Route [Promoter]: ORAL, Species: RAT, Strain/Sex: MALE) was “liver”; the outcome (Carcinogen: DIETHYLNITROSAMINE [55-18-5], Doses [Carcinogen]: 90 MG/KG BW ONCE, Doses [Promoter]: 90 MG/KG BW DAILY FOR UP TO 76 WK STARTING 2 WK AFTER CARCINOGEN TREATMENT (STUDY DURATION: 76 WK), Route [Carcinogen]: IP INJECTION, Route [Promoter]: DIET, Species: MOUSE, Strain/Sex: C3H/HE/MALE) is “liver: tumor incidence was 100% by 52 wk and 10 tumors/animal”; the outcome (Carcinogen: DIETHYLNITROSAMINE [55-18-5], Doses [Carcinogen]: 90 MG/KG BW ONCE, Doses [Promoter]: 90 MG/KG BW DAILY FOR UP TO 90 WK STARTING 2 WK AFTER CARCINOGEN TREATMENT (STUDY DURATION: 92 WK), Route [Carcinogen]: IP INJECTION, Route [Promoter]: DIET, Species: MOUSE, Strain/Sex: B6C3F1/MALE) is “liver: promoter increased liver tumor incidence considerably, 12 tumors/animal a”; the outcome (Carcinogen: DIETHYLNITROSAMINE [55-18-5], Doses [Carcinogen]: 90 MG/KG BW ONCE, Doses [Promoter]: 90 MG/KG BW DAILY FOR UP TO 90 WK STARTING 2 WK AFTER CARCINOGEN TREATMENT (STUDY DURATION: 92 WK), Route [Carcinogen]: IP INJECTION, Route [Promoter]: DIET, Species: MOUSE, Strain/Sex: C57BL/6J/MALE) is reported as “liver: tumor; 5 tumors/animal at 76 wk; pb increased tumors somewhat at 40-92 wk”. Also, the outcome was “liver: adenoma” (Carcinogen: DIETHYLNITROSAMINE, 55-18-5, Doses [Carcinogen]: 5 MG/KG IN SALINE ONCE ON DAY 15 OF AGE, Doses [Promoter]: 0, 500 MG/L FOR 24 WK BEGINNING AT 28 DAYS OF AGE (STUDY DURATION: 28 WK), Route [Carcinogen]: INTRAPERITONEAL, Route [Promoter]: ORAL, Species: MOUSE, Strain/Sex: C3H/MALE); “liver: adenoma or carcinoma” (Carcinogen: DIETHYLNITROSAMINE, 55-18-5, Doses [Carcinogen]: 10 MG/KG ONCE, Doses [Promoter]: 0, 500 PPM IN DIET FOR 140 D BEGINNING 30 D POST CARCINOGEN DOSE (STUDY DURATION: 450 D), Route [Carcinogen]: INTRAPERITONEAL, Route [Promoter]: ORAL, Species: RAT, Strain/Sex: SPRAGUE-DAWLEY/FEMALE); “liver: tumor” (Carcinogen: DIETHYLNITROSAMINE, 55-18-5, Doses [Carcinogen]: 80 MG/KG BW ONCE, Doses [Promoter]: 0, 0.05% IN DIET FOR 39 WK BEGINNING 1 WK POST CARCINOGEN DOSE (STUDY DURATION: 40 WK), Route [Carcinogen]: INTRAPERITONEAL, Route [Promoter]: ORAL, Species: RAT, Strain/Sex: F344/MALE); “liver: hepatocellular carcinoma or neoplastic nodule” (Carcinogen: DIETHYLNITROSAMINE, 55-18-5, Doses [Carcinogen]: 150 MG/KG ONCE, Doses [Promoter]: 0.05% IN DIET BEGINNING 2 WK POST CARCINOGEN DOSE AND CONTINUING FOR 54 WK (STUDY DURATION: 56 WK), Route [Carcinogen]: INTRAPERITONEAL, Route [Promoter]: ORAL, Species: RAT, Strain/Sex: F344/MALE); “liver: hepatocellular carcinoma or neoplastic nodule” (Carcinogen: DIETHYLNITROSAMINE, 55-18-5, Doses [Carcinogen]: 150 MG/KG ONCE, Doses [Promoter]: 0.05% IN DIET BEGINNING 2 WK POST CARCINOGEN DOSE FOR 11 WK FOLLOWED BY CONTROL DIET FOR DURATION OF STUDY (STUDY DURATI, Route [Carcinogen]: INTRAPERITONEAL, Route [Promoter]: ORAL, Species: RAT, Strain/Sex: F344/MALE); “liver: hepatocellular carcinoma or neoplastic nodule” (Carcinogen: DIETHYLNITROSAMINE, 55-18-5, Doses [Carcinogen]: 150 MG/KG ONCE, Doses [Promoter]: 0.05% IN DIET BEGINNING 11 WK POST CARCINOGEN DOSE AND CONTINUING FOR DURATION OF STUDY (STUDY DURATION: 56 WK), Route [Carcinogen]: INTRAPERITONEAL, Route [Promoter]: ORAL, Species: RAT, Strain/Sex: F344/MALE). Also, the outcome runs as follows: (Carcinogen: DIETHYLNITROSAMINE, Doses [Carcinogen]: SC, Doses [Promoter]: IN DIET, Route [Carcinogen]: SUBCUTANEOUS, Route [Promoter]: ORAL, Species: RAT, Strain/Sex: MALE) “liver”; (Carcinogen: DIMETHYLNITROSAMINE, 62-75-9, Doses [Carcinogen]: 5 MG/KG IN SALINE ONCE ON DAY 15 OF AGE, Doses [Promoter]: 0, 500 MG/L FOR 24 WK BEGINNING AT 28 DAYS OF AGE (STUDY DURATION: 28 WK), Route [Carcinogen]: INTRAPERITONEAL, Route [Promoter]: ORAL, Species: MOUSE, Strain/Sex: B6C3F1/MALE) “liver: adenoma”; (Carcinogen: DIMETHYLNITROSAMINE, 62-75-9, Doses [Carcinogen]: 5 MG/KG IN SALINE ONCE ON DAY 15 OF AGE, Doses [Promoter]: 0, 500 MG/L FOR 24 WK BEGINNING AT 28 DAYS OF AGE (STUDY DURATION: 28 WK), Route [Carcinogen]: INTRAPERITONEAL, Route [Promoter]: ORAL, Species: MOUSE, Strain/Sex: C3H/MALE) “liver: adenoma”.
